Where a SMILES comes first, the peptide text is derived from it. The star is where a group is joined. Cbz = O=C(OCc1ccccc1)*
Legend:
glutathionylated ISCU = assay: ISCU glutathionylation by immunoprecipitation and immunoblot in PAECs; type: cell-based, human; settings: hypoxic PAECs, MG132 5 mM, 2 h
Experimental: (§1) Protein stability assay: The proteasome inhibitor MG132 (M7449, Sigma) was stored at −20° C. at a concentration of 10 mM diluted in dimethyl sulfoxide (DMSO). PAECs were exposed to MG132 ([…]) vs. DMSO vehicle control for 2 hr under hypoxia, prior to harvesting of cellular lysate for immunoblotting.
Immunoblot and densitometry: Cells were lysed in RIPA buffer (Sigma) along with 1× protease inhibitor cocktail (Sigma). Protein lysate was resolved by gradient 4%-15% SDS-PAGE gels and transferred onto a 0.2 μm PVDF membrane (Bio-Rad). Membranes were blocked in 5% non-fat milk in 1×PBST buffer for one hour at room temperature. Later, they were incubated in the presence of the primary antibody overnight at 4° C. and then appropriate HRP-conjugated secondary antibodies (Life Technologies). […] The images were later quantified using AlphaEaseFC software (Alpha Innotech).
Immunoprecipitation: PAECs were transfected with the indicated combinations of siRNAs by Lipofectamine 2000 (Thermo Fisher Scientific) according to the manufacturer's instructions and/or treated with BRD2889 ([…], 24 h). […] After extensive washing, the immunoprecipitated proteins were analyzed by immunoblotting with the indicated antibodies.

ISCU = assay: Immunoblot of ISCU and GSTP1 in PAECs; type: cell-based, human; settings: hypoxic PAECs, MG132 5 mM, 2 h
Experimental: (§2) For hypoxia exposure, cells were plated in 6-well cell culture plates at 1×10^5 cells/well, grown for 24 hr and placed into a normobaric hypoxia chamber (1% O2) for 24 h under specific treatment conditions. Namely, for I-BET and siLGALS8 exposures, cells were either pre-treated with I-BET/vehicle control (VC) or transfected with siLgals8/Scr for 24 h. Then, they were cultured in basal media at 1% 02. After 24 h, caspase activity and mitochondrial superoxide levels were quantified. To detect activation status of pSTAT1/STAT1 by immunoblot, cells were exposed to 8 h of hypoxia.
(§3) In IL-6/sIL-6R+hypoxia experiments, a human recombinant IL-6/IL-6R alpha protein chimera (25 ng/ml, Millipore) was administered at 70-80% confluency for 48 h in complete media along with vehicle control (DMSO, Sigma-41639). BRD2889 (1 uM) vs. vehicle control were added, as indicated, and placed into a hypoxia chamber for 24 h. The hypoxia chamber (modular incubator chamber) was obtained from Billups-Rothenberg Inc. (Del Mar, Calif) and placed in regulated CO2 incubator at 37° C.
as §1
(§4) Immunoblot and densitometry: Cells were lysed in RIPA buffer (Sigma) along with 1× protease inhibitor cocktail (Sigma). Protein lysate was resolved by gradient 4%-15% SDS-PAGE gels and transferred onto a 0.2 μm PVDF membrane (Bio-Rad). Membranes were blocked in 5% non-fat milk in 1×PBST buffer for one hour at room temperature. Later, they were incubated in the presence of the primary antibody overnight at 4° C. and then appropriate HRP-conjugated secondary antibodies (Life Technologies). The following antibodies were used: human LGALS8 (AF1305, RnD Systems), mouse/rat Lgals8 (ab69631, Abcam), pSTAT1 (ab29045, Abcam) and STAT1 (ab47425, Abcam), GSTP1 (ab153949, Abcam), ISCU (14812-1-AP, Prointech), Glutathione (ab19534, Abcam), HIF2A (NB100-122, Novous), α-Tubulin (CP06, Millipore sigma), and ACTB (sc-47778, Santa Cruz). The immunoreactive bands were visualized with the Chemidoc XRS+system (Bio-Rad) using SuperSignal West Femto chemiluminescent substrates (Thermo Fisher Scientific). The images were later quantified using AlphaEaseFC software (Alpha Innotech).

[1] = biological target: glutathione S-transferase pi 1 (GSTP1) (Homo sapiens, UniProt P09211); settings: literature report; cited from earlier work
[2] = tested on: normal, non-transformed cells; liver and kidney; settings: literature report; cited from earlier work
[3] = tested on: Cluster 15 (C15) genes incl. LGALS8; assay: RT-qPCR of Cluster 15 gene expression in PAECs; type: cell-based, human; settings: PAECs + IL-1β; for IL-1β-induced expression changes in Cluster 15 members SLC9A3R1, LGALS3: 500 nM
Experimental: (§5) Human recombinant galectin-8 (1305-GA-050) was purchased from R&D Systems and was used at a working concentration of 30 nM.
(§6) RT-qPCR analysis: Cells were lysis in 1 ml of QiaZol reagent (Qiagen). Total RNA content was extracted using the RNeasy kit (Qiagen), according to the manufacturer's instructions. Total RNA concentration was determined using a BioTek Synergy multimode plate reader. Messenger RNAs were reverse transcribed to generate cDNA using the Multiscript RT kit (Thermo Fisher Scientific). cDNA for specific gene targets was amplified and quantified via fluorescently-labeled Taqman primer sets and Taqman fast advanced master mix (Thermo Fisher Scientific) using an Applied Biosystems QuantStudio 6 Flex Real-Time PCR System.

chronically hypoxic mice = assay: Hypoxia-induced pulmonary hypertension mouse model
From the text: Animal models: For the hypoxia-induced pulmonary hypertension mice, male C57BL/6J mice (8 weeks old) (RRID:IMSR_JAX:000664) were purchased from Jackson laboratory and acclimatized for 3-4 days in this facility. Subsequently, mice scheduled for normoxic vs. hypoxic exposure were maintained in either normoxia or a normobaric hypoxia chamber for 1 or 3 weeks (OxyCycler, Biospherix Ltd.), where consistent exposure to 10% oxygen and control for temperature and humidity were possible. For testing the activity of I-BET in hypoxia-induced pulmonary hypertension mice, three experimental groups—normoxia+VC (vehicle control), hypoxia+VC (vehicle control), and hypoxia+I-BET were used.
I-BET was dissolved in DMSO at 100× concentration and then made into a working solution in 20% PEG400 and 80% 1×PBS. BRD2889 was made into a working solution of 2.5% DMSO.
Male and female 8 week old Lgals8−/− mice were exposed to hypoxia for 3 weeks. Littermates were used as wildtype (WT) control when comparing with knockout mice.
Immunofluorescent staining: Cryostat sections were cut from OCT-embedded lung tissues at 5-10 μm and mounted on gelatin-coated histological slides. Slides were thawed at room temperature for 10-20 min and rehydrated in wash buffer for 10 minutes. All sections were blocked in 10% donkey serum and exposed to primary antibody and Alexa 488, 568 and 647-conjugated secondary antibodies (Thermo Fisher Scientific). The following primary antibodies were used: Lgals8 (Ab69631, Abcam; 1/200), IL-1β (ab9722, Abcam; 1/200), GSTP1 (ab153949, Abcam; 1:100), ISCU (14812-1-AP, Proteintech; 1:100), cleaved caspase 3 (cs-9661, Cell Signaling; 1/400), α-SMA (F3777, Sigma; 1/200) and CD31 (ab7388, Abcam; 1/200). Images were obtained using Nikon A1 confocal microscope with 40× objective. Small pulmonary vessels (10 vessels/section) that were not associated with bronchial airways were selected for analysis. Intensity of staining was quantified using ImageJ software (NIH). Degree of pulmonary arteriolar muscularization was assessed in OCT lung sections stained for α-SMA by calculation of the proportion of fully and partially muscularized peripheral (<100 μm diameter) pulmonary arteriole to total peripheral pulmonary arterioles (Bertero T et al. J Clin Invest. 2014, 124, 3514-3528).

LGALS8 = assay: Immunoblot and densitometry of LGALS8 isoforms in PAECs; type: cell-based, human; settings: PAECs + IL-1β
Experimental: as §5, §4

Cluster 15 (C15) genes = assay: RT-qPCR of Cluster 15 gene expression in PASMCs; type: cell-based, human; settings: PASMCs + IL-1β
From the text: (§7) Cell culture: Primary human pulmonary artery endothelial cells (PAECs) and human pulmonary artery smooth muscle cells (PASMCs) were purchased from Lonza (302-05A, CC-2581). Of note, the same two male donors were the source of all PAECs in the experiments shown. Two additional male donors were the source for all PASMCs in the experiments shown. Cells from these and any donors were characterized by flow cytometry for consistent expression of cell surface markers and by RNA (RT-qPCR) analysis of endothelial and smooth muscle gene expression. PAECs were cultured in EGM-2 media (CC-3121) along with supplements (CC-4133), and PASMCs were cultured in SmGM-2 culture media (Lonza, CC-3182) at 5% CO2 in a humidified incubator.
as §5
as §6, with “Total RNA content was extracted using the RNeasy kit (Qiagen), according to the manufacturer's instructions.” left out

PAECs [4] = assay: Mitochondrial superoxide by MitoSOX Red flow cytometry in PAECs; type: cell-based, human
From the text: as §7, §5, §2
Flow cytometry detection of mitochondrial superoxide: For measuring mitochondrial superoxide, cells were incubated with 5 μM of MitoSOX Red mitochondrial superoxide indicator (Thermo Fisher Scientific) for 10 min in 37° C. CO2 incubator. Next, cells were washed with 1×PBS, trypsinized, and fluorescence (488 nm/580 nm) was measured on flow analyzer (BD LSR FORTESSA or BD LSRII) using BD […] software.

PAECs [5] = assay: Apoptosis by caspase-3/7 activity in PAECs; type: cell-based, human
From the text: as §7, §5, §2, §3
Cellular apoptosis: Caspase-3/7 activity was quantified using the Caspase-Glo 3/7 Assay (Promega), according to manufacturer's instructions. Caspase-3/7 activity was normalized to total protein content determined by BCA method (Thermo Fisher Scientific).

PAECs [6] = assay: Global transcriptome microarray in PAECs; type: cell-based, human; settings: IL-1β +/- I-BET762, microarray
From the text: The gene expression was normalized with Robust Multiarray Analysis (RMA). For BRD2889, the same approach was employed using Affymetrix Clariom S array on RNA isolated from PAECs treated with BRD2889 or vehicle and subjected to either hypoxia or normoxia. Differentially expressed genes were defined as any gene for which the FDR adjusted p-value was below 0.05 (n=3/grp). Reversed genes were further defined as those genes that were differentially expressed in both (hypoxia versus normoxia) and in (hypoxia+BRD2889 versus hypoxia)+vehicle as well as were regulated in opposite directions. Similarly, for I-BET that were differentially expressed in IL-1β+VC versus control and IL-1β+I-BET versus IL-1β+VC and were regulated in opposite directions. The data for both I-BET and BRD2889 have been submitted to the NCBI Gene Expression Omnibus with accession numbers GSE125508 and GSE160255, respectively.

[7] = tested on: SU5416-hypoxic pulmonary arterial hypertension rats; assay: SU5416-hypoxia pulmonary arterial hypertension rat model; type: in vivo, Sprague-Dawley rats
Experimental: Briefly, 10 week old male Sprague-Dawley rats were injected i.p. with 20 mg/kg of SU5416 (Sigma), placed in normobaric hypoxia (10% O2) for 3 weeks and then transferred to normoxia for 2 weeks. During hypoxic exposure, chambers were opened twice a week for cleaning and replenishment of food and water. […] For BRD2889 vs. vehicle control dosing, i.p. injections every 5 days (5 mg/kg) were administered during the final two weeks of normoxia. Oxygen concentrations were continuously monitored with blood gas analyzers.
Following euthanasia, right ventricle/[left ventricle+septum]
Measurement of GST activity: The GST activity from lung tissue and PAECs was assayed using GST assay kit (Cayman, MI, USA) per the manufacturer's instructions.
Rodent echocardiography: Echocardiography was performed using a 15-45 MHz transthoracic transducer and a Visual Sonics Vevo 3100 system (Fujifilm). Inhaled isoflurane anesthesia was used at 2% in 100% O2 during positioning and hair removal and then decreased to isoflurane 0.8% during imaging.

[8] = I-BET762 30 mg/kg daily oral gavage, chronic hypoxia
[9] = PAECs + IL-1β 10 ng/ml 48 h, I-BET762 500 nM vs vehicle
[10] = PAECs, hypoxia 1% O2 24 h, I-BET pre-treatment
[11] = I-BET762 30 mg/kg i.p. daily, Days 21-35
[12] = IL-1β-exposed (48 h) PAECs treated with I-BET and rhGal8 (24 h)
[13] = PAECs, rhGal8 alone (30 nM, 24 h)

Sequence of glutathione S-transferase pi 1 (GSTP1) (P09211 whole entry, species assumed): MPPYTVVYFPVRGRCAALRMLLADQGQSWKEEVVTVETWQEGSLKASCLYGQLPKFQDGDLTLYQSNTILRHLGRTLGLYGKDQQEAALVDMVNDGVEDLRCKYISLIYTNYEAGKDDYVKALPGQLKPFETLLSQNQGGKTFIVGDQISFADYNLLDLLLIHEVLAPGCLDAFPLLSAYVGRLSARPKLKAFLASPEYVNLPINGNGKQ

With `CC(C)C[C@@H](C=O)NC(=O)[C@H](CC(C)C)NC(=O)[C@H](CC(C)C)NC(=O)OCc1ccccc1` [MG132, reference compound] (Cbz-Leu-Leu-Leu-aldehyde) the “GSTP1 or ISCU glutathionylation” value (glutathionylated ISCU) was “without affecting” and the ISCU protein (ISCU) was “reversed the hypoxic down-regulation”.

For `COc1cc(/C=C/C(=O)N2CCC=CC2=O)cc(OC)c1OC` [piperlongumine, reference compound], the “inhibition of GSTP1” value [1] is listed as “reported to inhibit” and the “toxicity to normal, non-transformed cells” value [2] is listed as “minimal toxicity”.

For `COc1cc2c(cc1-c1c(C)noc1C)ncc1[nH]c(=O)n([C@H](C)c3ccccn3)c12` [I-BET151], the “IL-1β-induced expression changes in Cluster 15 members SLC9A3R1, LGALS3” value [3] was “reversed”.

With `CCNC(=O)C[C@@H]1N=C(c2ccc(Cl)cc2)c2cc(OC)ccc2-n2c(C)nnc21` [I-BET762] the heart rate (chronically hypoxic mice; [8]) was “without significant effect”, the “pulmonary vascular LGALS8, including in endothelial cells” value (chronically hypoxic mice; [8]) was “robustly decreased” and the “pulmonary vascular muscularization (α-SMA stain)” value (chronically hypoxic mice; [8]) was “reduced”. The “right ventricular systolic pressure (RVSP)” value (chronically hypoxic mice; [8]) was “reduced”, the “downstream apoptosis (cleaved caspase-3)” value (chronically hypoxic mice; hypoxic mice, most notable at early stage (1 week hypoxia)) was “reduced downstream apoptosis” and the “LGALS8 in normoxic mice” value (chronically hypoxic mice; normoxic mice, similar dosing, mean±SEM, vehicle 1±0.02, p=NS) was 1.08±0.03 fold change. The “LGALS8-L protein (immunoblot)” value (LGALS8) was “reversed the IL-1β-induced increase of the L isoform”, the LGALS8-L transcript [3] was “reversed” and the LGALS8-M transcript [3] was “not altered”. The “IL-1β-induced expression changes in Cluster 15 members SLC9A3R1, LGALS3” value [3] was “reversed”, the “expression of C15 genes LGALS3, LGALS8, ABCC4, CD47, SLC9A3R1, DAG1” value ([3]; I-BET762 500 nM) was “reversed” and the “extent of reversal of C15 genes LGALS3, LGALS8, DAG1, SLC9A3R1” value ([3]; I-BET762 500 nM) was “near complete reversal”. The “alteration and reversal of C15 genes including LGALS8” value (Cluster 15 (C15) genes) was “not observed”, the “mitochondrial superoxide (O2-) levels” value (PAECs [4]; [9]) was “reduced the IL-1β-dependent increase” and the mitochondrial superoxide levels (PAECs [4]; [10]) was “reversed the hypoxia-induced increases”. The “apoptosis (caspase-3/7 activity)” value (PAECs [5]; [9]) was “reduced the IL-1β-dependent increase”, the “apoptosis (caspase-3/7 activity)” value (PAECs [5]; [10]) was “reversed the hypoxia-induced increases” and the “number of genes altered by IL-1β vs vehicle and reversed by drug” value (PAECs [6]) was 524 genes. The “LGALS8 in pulmonary arterioles (immunofluorescence)” value [7, 11] was “decreased”, the arteriolar muscularization [7, 11] was “reduced” and the “cleaved caspase-3 (CC-3) in pulmonary arterioles” value [7, 11] was “decreased”. The “right ventricular systolic pressure (RVSP)” value [7, 11] was “reduced” and the “left ventricular function (LVPW thickness, LVEF, LVFS; echocardiography)” value ([7]; I-BET762 vs vehicle) was “did not exhibit altered left ventricular function”.

B1: rhGal8: recombinant human galectin-8 (R&D Systems 1305-GA-050) (protein, UniProt O00214 1-317, looked up)
Galectin-8: MMLSLNNLQNIIYNPVIPFVGTIPDQLDPGTLIVIRGHVPSDADRFQVDLQNGSSMKPRADVAFHFNPRFKRAGCIVCNTLINEKWGREEITYDTPFKREKSFEIVIMVLKDKFQVAVNGKHTLLYGHRIGPEKIDTLGIYGKVNIHSIGFSFSSDLQSTQASSLELTEISRENVPKSGTPQLRLPFAARLNTPMGPGRTVVVKGEVNANAKSFNVDLLAGKSKDIALHLNPRLNIKAFVRNSFLQESWGEEERNITSFPFSPGMYFEMIIYCDVREFKVAVNGVHSLEYKHRFKELSSIDTLEINGDIHLLEVRSW
For B1, the “I-BET-induced attenuation of IL-1β-specific mitochondrial superoxide” value (PAECs [4]; [12]) was “reduced the ability of I-BET to decrease”, the mitochondrial superoxide (PAECs [4]; [13]) was “no effect” and the “I-BET-induced attenuation of IL-1β-specific apoptosis (caspase 3/7)” value (PAECs [5]; [12]) was “reduced the ability of I-BET to decrease”. For the same molecule, the “apoptosis (caspase 3/7 activity)” value (PAECs [5]; [13]) was “no effect”.
